This is an account of results in US20240285598A1 (priority 2021, published 2024).

Where only a bound is given, the exact number is not on record here.

The first data set has as its system SARS-CoV-2. Briefly: Antiviral assay (viral RNA in culture supernatant by RT-qPCR). The settings on record: Severe acute respiratory syndrome coronavirus 2, 72 h, read-out: CC50 (Antiviral Data), MOI of 0.05, 72 h, 96-well plate, RT-qPCR of viral RNA.
For `CCCN(CCC)[C@@H]1C[C@@H](C(=O)NC(C#N)C[C@@H]2CCNC2=O)N(C(=O)[C@@H](NC(=O)C(F)(F)F)C(C)(C)C)C1` (stereo partly drawn), the CC50 was more than 100 µM.

In the case of `CCCN(CCC)[C@@H]1C[C@@H](C(=O)NC(C#N)C[C@@H]2CCNC2=O)N(C(=O)[C@@H](NC(=O)OCc2ccncc2)C(C)(C)C)C1` (stereo partly drawn), the CC50 was more than 100 µM.

As for `CCCN(CCC)[C@@H]1C[C@@H](C(=O)N[C@H](C#N)Cc2cc(C)n[nH]2)N(C(=O)C(NC(=O)C(F)(F)F)C(C)(C)C)C1` (stereo partly drawn), the CC50 is more than 100 µM.

Consider `CC(C)(C)[C@@H](NC(=O)C(F)(F)F)C(=O)N1C[C@H]2[C@@H]([C@H]1C(=O)N[C@H](C#N)Cc1cc(CO)n[nH]1)C2(C)C`, for which the CC50 is more than 100 µM.

Consider `CC(C)O[C@@H]1C[C@@H](C(=O)NC(C#N)C[C@H]2CCNC2=O)N(C(=O)[C@@H](NC(=O)OC(C)(C)C)C(C)(C)C)C1` (stereo partly drawn), for which the CC50 lay in the range of 10.1 to 100 µM.

With `CCCO[C@@H]1C[C@@H](C(=O)NC(C#N)C[C@@H]2CCNC2=O)N(C(=O)[C@@H](NC(=O)OCc2ccccc2)C(C)(C)C)C1` (stereo partly drawn), the CC50 fell in the range of 1 to 10 µM.

Take `CCCN(CCC)[C@@H]1C[C@@H](C(=O)NC(C#N)Cc2cn[nH]c2O)N(C(=O)[C@@H](NC(=O)C(F)(F)F)C(C)(C)C)C1` (stereo partly drawn): the CC50 was more than 100 µM.

Regarding `CC(C)Cc1cc(C[C@@H](C#N)NC(=O)[C@@H]2[C@@H]3[C@H](CN2C(=O)[C@H](NC(=O)C(F)(F)F)C(C)(C)C)C3(C)C)[nH]n1`, the CC50 was more than 100 µM.

`CC(C)(C)[C@H](NC(=O)C(Cl)(Cl)Cl)C(=O)N1C[C@H]2[C@@H]([C@H]1C(=O)N[C@H](C#N)C[C@@H]1CCNC1=O)C2(C)C`: the CC50 was more than 100 µM.

Turning to `Cc1cc(C[C@@H](C#N)NC(=O)[C@@H]2[C@@H]3[C@H](CN2C(=O)[C@H](NC(=O)C(F)(F)F)C(C)(C)C)C3(C)C)[nH]n1`, the CC50 was in the range of 10.1 to 100 µM.

For `CC(C)(C)[C@H](NC(=O)OCc1ccncc1)C(=O)N1C[C@H]2[C@@H]([C@H]1C(=O)N[C@H](C#N)C[C@@H]1CCNC1=O)C2(C)C`, the CC50 lay in the range of 1 to 10 µM.

Turning to `CCCN(CCC)[C@@H]1C[C@@H](C(=O)NC(C#N)Cc2cc(OS(=O)(=O)c3ccc(C)cc3)n(S(=O)(=O)c3ccc(C)cc3)n2)N(C(=O)[C@@H](NC(=O)C(F)(F)F)C(C)(C)C)C1` (stereo partly drawn), the CC50 is more than 100 µM.

As for `CC(C)(C)OC(=O)N1C[C@H]2[C@@H]([C@H]1C(=O)N[C@H](C#N)C[C@@H]1CCNC1=O)C2(C)C`, the CC50 was more than 100 µM.

As to `CC(C)(C)C(=O)N[C@H](C(=O)N1C[C@H]2[C@@H]([C@H]1C(=O)N[C@H](C#N)C[C@@H]1CCNC1=O)C2(C)C)C(C)(C)C`, the CC50 was in the range of 1 to 10 µM.

As for `CCCN(CCC)[C@@H]1C[C@@H](C(=O)NC(C#N)C[C@@H]2CCNC2=O)N(C(=O)[C@@H](NC(=O)OCc2ccccc2)C(C)(C)C)C1` (stereo partly drawn), the CC50 lay within 10.1 to 100 µM.

Regarding `CCCO[C@@H]1C[C@@H](C(=O)NC(C#N)C[C@@H]2CCNC2=O)N(C(=O)[C@@H](NC(=O)OC(C)(C)C)C(C)(C)C)C1` (stereo partly drawn), the CC50 was in the range of 10.1 to 100 µM.

For the compound `CC(C)(C)OC(=O)N[C@H](C(=O)N1Cc2ccccc2C[C@H]1C(=O)NC(C#N)CC1CCNC1=O)C(C)(C)C` (stereo partly drawn), the CC50 was more than 100 µM.

In the case of `CC(C)(C)[C@H](NC(=O)C(F)(F)F)C(=O)N1CCN(Cc2ccccc2)CC1C(=O)N[C@@H](C#N)C[C@@H]1CCNC1=O` (stereo partly drawn), the CC50 was more than 100 µM.

With `CCCN(CCC)[C@@H]1C[C@@H](C(=O)NC(C#N)C[C@@H]2CCNC2=O)N(C(=O)C(C)(C)NC(=O)OCc2ccccc2)C1` (stereo partly drawn), the CC50 is more than 100 µM.

Regarding `CC(C)(C)[C@H](NC(=O)C(Cl)(Cl)Cl)C(=O)N1C[C@H]2[C@@H]([C@H]1C(=O)N[C@H](C#N)C[C@@H]1CCCNC1=O)C2(C)C`, the CC50 was more than 100 µM.

For the compound `CC(C)(C)[C@H](NC(=O)C(F)(F)F)C(=O)N1Cc2ccccc2CC1C(=O)N[C@@H](C#N)C[C@@H]1CCNC1=O` (stereo partly drawn), the CC50 is more than 100 µM.

As for `Cc1cc(C[C@@H](C#N)NC(=O)[C@@H]2[C@@H]3[C@H](CN2C(=O)[C@H](NC(=O)C2C4CO[C@@H]5OC[C@@H]2C5C4)C(C)(C)C)C3(C)C)[nH]n1` (stereo partly drawn), the CC50 was more than 100 µM.

For the compound `CC(C)(C)OC(=O)N[C@H](C(=O)N1CCN(C(=O)OC(C)(C)C)C[C@H]1C(=O)NC(C#N)CC1CCNC1=O)C(C)(C)C` (stereo partly drawn), the CC50 was more than 100 µM.

Regarding `CC(C)(NC(=O)C(F)(F)F)C(=O)N1C[C@H]2[C@@H]([C@H]1C(=O)N[C@H](C#N)C[C@@H]1CCNC1=O)C2(C)C`, the CC50 is more than 100 µM.

Consider `CCCN(CCC)[C@@H]1C[C@@H](C(=O)NC(C#N)C[C@@H]2CCNC2=O)N(C(=O)[C@@H](NC(=O)OCc2cccnc2)C(C)(C)C)C1` (stereo partly drawn), for which the CC50 is more than 100 µM.

For the compound `CC(C)(C)C(NC(=O)OCc1ccncc1)C(=O)N1C[C@H]2[C@@H]([C@H]1C(=O)N[C@H](C#N)C[C@@H]1CCCNC1=O)C2(C)C` (stereo partly drawn), the CC50 lay in the range of 1 to 10 µM.

On to `CC(C)(C)[C@H](NC(=O)C(F)(F)F)C(=O)N1C[C@H](N2CCC(F)(F)CC2)C[C@H]1C(=O)NC(C#N)C[C@@H]1CCNC1=O` (stereo partly drawn), for which the CC50 was more than 100 µM.

With `CC(C)(C)[C@H](NC(=O)OCc1ccccc1)C(=O)N1CCC(F)(F)C[C@H]1C(=O)NC(C#N)C[C@@H]1CCNC1=O` (stereo partly drawn), the CC50 was 10.1 to 100 µM.

`CC(C)(C)NC(=O)N[C@H](C(=O)N1C[C@H]2[C@@H]([C@H]1C(=O)NC(C#N)C[C@@H]1CCNC1=O)C2(C)C)C(C)(C)C` (stereo partly drawn): the CC50 was more than 100 µM.

As for `CCCN(CCC)[C@@H]1C[C@@H](C(=O)NC(C#N)C[C@@H]2CCNC2=O)N(C(=O)[C@@H](NC(=O)OCc2ccccn2)C(C)(C)C)C1` (stereo partly drawn), the CC50 was more than 100 µM.

`CCCN(CCC)[C@@H]1C[C@@H](C(=O)NC(C#N)C[C@@H]2CCNC2=O)N(C(=O)[C@@H](NC(=O)C(Cl)(Cl)Cl)C(C)(C)C)C1` (stereo partly drawn): the CC50 was more than 100 µM.

For the compound `CCCO[C@@H]1C[C@@H](C(=O)NC(C#N)C[C@@H]2CCNC2=O)N(C(=O)[C@@H](NC(=O)NC(C)(C)C)C(C)(C)C)C1` (stereo partly drawn), the CC50 is more than 100 µM.

Regarding `CCCN(CCC)[C@@H]1C[C@@H](C(=O)NC(C#N)C[C@@H]2CCNC2=O)N(C(=O)[C@@H](NC(=O)NC(C)(C)C)C(C)(C)C)C1` (stereo partly drawn), the CC50 is more than 100 µM.

As for `CC(C)O[C@@H]1C[C@@H](C(=O)NC(C#N)C[C@H]2CCNC2=O)N(C(=O)[C@@H](NC(=O)OCc2ccccn2)C(C)(C)C)C1` (stereo partly drawn), the CC50 was more than 100 µM.

Take `CC(C)O[C@@H]1C[C@@H](C(=O)NC(C#N)C[C@H]2CCNC2=O)N(C(=O)[C@@H](NC(=O)OCc2cccnc2)C(C)(C)C)C1` (stereo partly drawn): the CC50 was more than 100 µM.

On to `CC(C)(C)[C@H](NC(=O)C(F)(F)F)C(=O)N1C[C@H]2[C@@H]([C@H]1C(=O)NC(C#N)Cc1cn[nH]c1O)C2(C)C` (stereo partly drawn), for which the CC50 was more than 100 µM.

Regarding `CC(C)(C)[C@H](NC(=O)c1ccccc1)C(=O)N1C[C@H]2[C@@H]([C@H]1C(=O)N[C@H](C#N)C[C@@H]1CCNC1=O)C2(C)C` [drawing 68], the CC50 lay in the range of 10.1 to 100 µM.

Consider `CC(C)O[C@@H]1C[C@@H](C(=O)NC(C#N)C[C@H]2CCNC2=O)N(C(=O)[C@@H](NC(=O)C(F)(F)F)C(C)(C)C)C1` (stereo partly drawn), for which the CC50 lay in the range of 10.1 to 100 µM.

For `CC(C)(C)OC(=O)N[C@H](C(=O)N1CCN(C(=O)OC(C)(C)C)CC1C(=O)N[C@@H](C#N)C[C@@H]1CCNC1=O)C(C)(C)C` (stereo partly drawn), the CC50 is more than 100 µM.

`CCCN(CCC)[C@@H]1C[C@@H](C(=O)NC(C#N)C[C@@H]2CCNC2=O)N(C(=O)[C@@H](NC(=O)OC(C)(C)C)C(C)(C)C)C1` (stereo partly drawn): the CC50 is 10.1 to 100 µM.

Take `CC(C)O[C@@H]1C[C@@H](C(=O)NC(C#N)C[C@H]2CCNC2=O)N(C(=O)[C@@H](NC(=O)C(O)c2ccco2)C(C)(C)C)C1` (stereo partly drawn): the CC50 is more than 100 µM.

Regarding `CCCN(CCC)[C@@H]1C[C@@H](C(=O)NC(C#N)C[C@@H]2CCNC2=O)N(C(=O)C(C)(C)NC(=O)C(F)(F)F)C1` (stereo partly drawn), the CC50 is more than 100 µM.

Regarding `CC(C)O[C@@H]1C[C@@H](C(=O)NC(C#N)C[C@H]2CCNC2=O)N(C(=O)[C@@H](NC(=O)OCc2ccncc2)C(C)(C)C)C1` (stereo partly drawn), the CC50 is more than 100 µM.

Still in this data set, the particulars now being: read-out: CC50 (Antiviral Data); MOI of 0.05, 72 h, 96-well plate, RT-qPCR of viral RNA.
`CC(C)(C)[C@H](NC(=O)C(F)(F)F)C(=O)N1C[C@H]2[C@@H]([C@H]1C(=O)N[C@H](C#N)C[C@@H]1CCNC1=O)C2(C)C` [drawing 94]: the CC50 is more than 100 µM.

For the compound `CC(C)(C)[C@H](NC(=O)c1ccccc1)C(=O)N1C[C@H]2[C@@H]([C@H]1C(=O)N[C@H](C#N)C[C@@H]1CCNC1=O)C2(C)C` [drawing 101], the CC50 is 10.1 to 100 µM.

As to `CC(C)(C)[C@H](NC(=O)C(F)(F)F)C(=O)N1C[C@H]2[C@@H]([C@H]1C(=O)N[C@H](C#N)C[C@@H]1CCNC1=O)C2(C)C` [drawing 61], the CC50 lay within 10.1 to 100 µM.

As to `CC(C)(C)[C@H](NC(=O)C(F)(F)F)C(=O)N1C[C@H]2[C@@H]([C@H]1C(=O)N[C@H](C#N)C[C@@H]1CCCNC1=O)C2(C)C` [drawing 95], the CC50 was 1 to 10 µM.

Consider `CC(C)(C)[C@H](NC(=O)C(F)(F)F)C(=O)N1C[C@H]2[C@@H]([C@H]1C(=O)N[C@H](C#N)C[C@@H]1CCCNC1=O)C2(C)C` [drawing 62], for which the CC50 lay within 10.1 to 100 µM.
